The target in this test is SnDHAD (Synechocystis sp. PCC 6803, UniProt P74689). The test can be described thus: DHAD activity inhibition assay. The test is classed as biochemical. The following applies: read-out: % inhibition at 0.5 mM.

What is called inhibition is the relative decrease from the control value, in per cent.

SnDHAD, sequence (P74689 whole entry): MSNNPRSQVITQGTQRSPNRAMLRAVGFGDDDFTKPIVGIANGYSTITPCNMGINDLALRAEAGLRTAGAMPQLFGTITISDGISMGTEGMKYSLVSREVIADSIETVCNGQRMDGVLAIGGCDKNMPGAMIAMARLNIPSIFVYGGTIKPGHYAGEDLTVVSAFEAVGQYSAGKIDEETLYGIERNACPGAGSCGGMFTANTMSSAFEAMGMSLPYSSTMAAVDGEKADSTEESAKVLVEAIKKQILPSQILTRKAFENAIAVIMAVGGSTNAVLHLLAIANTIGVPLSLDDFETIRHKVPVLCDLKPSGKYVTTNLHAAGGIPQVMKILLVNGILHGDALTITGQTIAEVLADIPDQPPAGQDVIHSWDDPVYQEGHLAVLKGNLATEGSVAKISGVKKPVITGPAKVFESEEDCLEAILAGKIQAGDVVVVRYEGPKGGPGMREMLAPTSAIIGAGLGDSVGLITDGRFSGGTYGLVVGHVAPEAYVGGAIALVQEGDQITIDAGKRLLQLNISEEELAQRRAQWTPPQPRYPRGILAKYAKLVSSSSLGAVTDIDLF

Regarding `O=C(O)C(O)C(=O)O` [Tartronic acid], the inhibition at 500 µM was approximately 35%.

The values are drawn from paper PMC8162731 (ACS chemical biology, 2020).
